Results reported in patent US12692274B2, “Tetrahydroisoquinoline derivatives for the treatment of red blood disorders and inflammatory diseases” (Sanofi, priority 2020, dated 2026).
Values joined by “and” are separate entries in the source; they are usually repeats but may differ in a detail not shown here. Equal values may be shown once.

Columns and labels:
[1] = biological target: HIS-Keap1 full length / Biotin-Nrf2 (16-mer) (Homo sapiens, UniProt Q14145); assay: biochemical
[2] = test system: NQO1 activation in BEAS-2B cells; assay: BEAS-2B cellular MTT assay of NQO1 activation, 0% HSA; assay type: cell-based
In short: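 For the 0% HSA condition, cells were seeded into collagen plates in HSA-free medium. Culture was BEAS-2B in BEBM plus BEGM SingleQuots lacking GA-1000, held under 70% confluence, at a seeding density reaching 95-100% confluence by 48 h.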

[3] = test system: NQO1 activation in BEAS-2B cells; assay: BEAS-2B cellular MTT assay of NQO1 activation, 0.3% HSA; assay type: cell-based
In short: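 MTT read-out in BEAS-2B cells grown in BEBM with SingleQuots, no GA-1000, kept below 70% confluence; plates coated with collagen, with 0.3% or 0% HSA medium, seeded to 95-100% confluency at 48 h, 37 °C, 5% CO2.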

[4] = Homo sapiens, Serum Free W, read-out: BEAS EC50 (nM) Serum Free W
[5] = Serum Free W, read-out: BEAS EC50 (nM) Serum Free W
[6] = BEAS+ W, read-out: BEAS+ W EC50
[7] = Homo sapiens, BEAS+ W, read-out: BEAS+ W EC50
[8] = Homo sapiens, serum free, read-out: BEAS EC50 (nM) serum free
[9] = serum free, read-out: BEAS EC50 (nM) serum free
[10] = Homo sapiens, BEAS+, read-out: BEAS+ EC50

Sequence of HIS-Keap1 full length / Biotin-Nrf2 (16-mer) (Q14145 whole entry): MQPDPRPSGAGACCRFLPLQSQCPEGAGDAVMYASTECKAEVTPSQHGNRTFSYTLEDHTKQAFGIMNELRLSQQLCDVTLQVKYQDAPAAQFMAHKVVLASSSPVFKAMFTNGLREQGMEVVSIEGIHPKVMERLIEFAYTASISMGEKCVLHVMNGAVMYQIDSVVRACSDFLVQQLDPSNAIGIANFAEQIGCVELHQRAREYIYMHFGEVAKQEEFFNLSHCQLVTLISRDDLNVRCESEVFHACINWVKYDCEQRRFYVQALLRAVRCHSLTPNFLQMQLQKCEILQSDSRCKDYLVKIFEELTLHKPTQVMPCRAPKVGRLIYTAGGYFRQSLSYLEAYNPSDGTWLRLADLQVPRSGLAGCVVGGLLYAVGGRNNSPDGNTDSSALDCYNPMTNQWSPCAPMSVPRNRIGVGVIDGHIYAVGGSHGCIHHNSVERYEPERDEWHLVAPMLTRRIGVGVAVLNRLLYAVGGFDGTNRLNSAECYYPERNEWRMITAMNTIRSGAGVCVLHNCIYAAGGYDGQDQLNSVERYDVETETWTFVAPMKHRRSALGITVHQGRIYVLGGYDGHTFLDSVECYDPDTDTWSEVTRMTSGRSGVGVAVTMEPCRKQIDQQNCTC

Row | SMILES | IC50 [1] | EC50 [2, 4] [nM] | EC50 [2, 5] [nM] | EC50 [3, 6] | EC50 [3, 7] [nM] | EC50 [2, 8] [nM] | EC50 [2, 9] | EC50 ([3]; BEAS+, read-out: BEAS+ EC50) | EC50 [3, 10] [nM]
1 | Cc1c2ccc3c1nnn3CCCCCOc1ccc(cc1)C(=O)N1CCc3ccc(cc3C1)[C@@H]2[C@@H](C)C(=O)O [Compound 118] | 0.4 nM | 2.5 | 4.2 | 4.4 nM and 3.6 nM and 6.5 nM | 3.8 |  |  |  | 
2 | COc1cc2ccc1CCCCCCn1nnc3c(C)c(cnc31)[C@@H](CC(=O)O)c1ccc3c(c1)CN(CC3)C2=O [Compound 96] | 0.8 nM | 25.5 | 29.4 | 49.6 nM | 42.8 |  |  |  | 
3 | O=C(O)CC1c2ccc(nc2)OCCCCCc2ccc(cc2)C(=O)N2CCc3ccc1cc3C2 (stereo not shown) [Compound 300] | < 0.1 nM |  |  |  |  | 3.1 | 5.4 nM | 7.9 nM | 10.8
4 | Cc1cc2ncc1[C@H]([C@H](C)C(=O)O)c1ccc3c(c1)CN(CC3)C(=O)c1ccc(cc1)C/C=C/CCO2 [Compound 62] | 0.4 nM and 0.8 nM | 0.2 | 0.1 | 0.4 nM and 0.3 nM | < 0.5 |  |  |  | 
5 | COCCn1c2cc3cc(ccc31)CCCCCCn1nnc3c(C)c(ccc31)[C@@H](CC(=O)O)c1ccc3c(c1)CN(CC3)C2=O [Compound 85] | 1.6 nM and 1.2 nM | 39.4 | 61.3 | 244 nM | 249 |  |  |  | 
6 | Cc1cc2cc3c1CCN(C3)C(=O)c1ccc(cc1)CCCCCCn1nnc3c(C)c(cnc31)[C@H]2CC(=O)O [Compound 93] | 1.3 nM and 1.4 nM | 3.4 | 2.7 | 17.1 nM | 15.4 |  |  |  | 
7 | O=C(O)CC1c2ccc3c(c2)CN(CC3)C(=O)c2ccc(cc2)CCCCCn2nnc3cc1ccc32 (stereo not shown) [Compound 276] | 2.2 nM and 2 nM and 2.1 nM |  |  |  |  | 88.5 |  |  | 49.3
8 | Cc1cc2ccc1C(=O)N1CCc3ccc(cc3C1)[C@@H]([C@H](C)C(=O)O)c1ccc3c(c1)nnn3CCCCCCO2 [Compound 294] | 22.1 nM and 17.3 nM |  |  |  |  | 450 |  |  | 809
9 | COc1cc2ccc1CCCCCCn1nnc3c(C)c(ccc31)[C@H](CC(=O)O)c1ccc3c(c1)CN(CC3)C2=O [Compound 102] | 4.5 nM and 4.2 nM | 25.1 | 24.6 | 104 nM | 117 |  |  |  | 
10 | Cc1cc2ccc1C(=O)N1CCc3ccc(cc3C1)[C@H]([C@@H](C)C(=O)O)c1ccc3c(nnn3CCCOCCO2)c1C [Compound 371] | 1.6 nM and 1.7 nM |  |  |  |  | 21.3 | 22.1 nM | 28.8 nM | 23.6
11 | COc1cc2ccc1CCCCCCn1nnc3c(C)c(ccc31)[C@@H](CC(=O)O)c1ccc3c(c1)CN(CC3)C2=O [Compound 101] | 2.6 nM and 2.8 nM | 4.7 | 5.1 | 31 nM | 34.9 |  |  |  | 
12 | Cc1c2ccc3c1nnn3CCCCCc1ccc(c3ncccc13)C(=O)N1CCc3ccc(cc3C1)[C@@H]2CC(=O)O [Compound 51] | 0.3 nM and 0.2 nM | 44.9 | 38.6 | 125 nM | 70.6 |  |  |  | 
13 | Cc1c2cnc3c1nnn3CCCCCc1cccc3c1cc(n3C)C(=O)N1CCc3ccc(cc3C1)C2CC(=O)O (stereo not shown) [Compound 49] | 0.6 nM (2×) and 0.4 nM and 0.5 nM | 27 | 28.8 | 93.2 nM | 117 |  |  |  | 
14 | Cc1c2ccc3c1nnn3CCCCCCc1ccc(c3ncccc13)C(=O)N1CCc3ccc(cc3C1)[C@@H]2CC(=O)O [Compound 50] | 0.2 nM and 0.3 nM | 57.3 | 47.6 | 138 nM | 89.7 |  |  |  | 
15 | O=C(O)CC1c2cnc(nc2)OCCCCCc2ccc(c(F)c2)C(=O)N2CCc3ccc1cc3C2 (stereo not shown) [Compound 238] | 6.2 nM |  |  |  |  | 571 | 377 nM | 603 nM | 572
16 | Cc1c2ccc3c1nnn3CCCCCCc1ccc(cc1)C(=O)N1CCc3ccc(cc3C1)[C@H]2CC(=O)O [Compound 202] | 7.2 nM and 6.8 nM and 7.1 nM |  |  |  |  | 58.2 | 55.5 nM and 69.1 nM | 298 nM and 338 nM | 200
17 | Cc1cc2ccc1C(=O)N1CCc3ccc(cc3C1)C(CC(=O)O)c1cnc(nc1C)OCCCCO2 (stereo not shown) [Compound 195] | 62.3 nM and 69.9 nM |  |  |  |  | 5570 | > 10000 nM |  | > 10000
18 | O=C(O)CC1c2ccc3c(c2)CN(CC3)C(=O)c2ccc(cc2F)CCCCCCn2nnc3cc1ccc32 (stereo not shown) [Compound 278] | 1.8 nM (2×) and 1.4 nM and 1.3 nM |  |  |  |  | 136 |  |  | 159
19 | Cc1cc2ccc1C(=O)N1CCc3ccc(cc3C1)C(C(C)(C)C(=O)O)c1ccc3c(c1)nnn3CCCCCCO2 (stereo not shown) [Compound 299] | < 0.1 nM |  |  |  |  | 0.6 |  |  | 3.6
20 | Cc1c2cnc3c1nnn3CCCCCc1cccc(c1)C(=O)N1CCc3ccc(cc3C1)C2CC(=O)O (stereo not shown) [Compound 354] | 20.1 nM and 13.8 nM | > 1000 |  | 2130 nM | 2700 |  |  |  | 

Row | SMILES | IC50 [1] | EC50 [2, 4] [nM] | EC50 [2, 5] [nM] | EC50 [3, 6] | EC50 [3, 7] [nM] | EC50 [2, 8] [nM] | EC50 [2, 9] | EC50 ([3]; BEAS+, read-out: BEAS+ EC50) | EC50 [3, 10] [nM]
21 | Cc1cc2ccc1C(=O)N1CCc3ccc(cc3C1)C(CC(=O)O)c1ccc3c(c1)nnn3CCCCCCO2 (stereo not shown) [Compound 332] | < 0.1 nM |  |  |  |  | 27.4 |  |  | 62.7
22 | Cc1c2ccc3c1nnn3CCCCOCc1ccc(c(F)c1)C(=O)N1CCc3ccc(cc3C1)C2CC(=O)O (stereo not shown) [Compound 387] | 1.5 nM and 1.7 nM |  |  |  |  | 95.9 | 75.2 nM | 90.3 nM | 62.6
23 | Cc1c2cnc3c1nnn3CCCCCc1cc(F)c(c(F)c1)C(=O)N1CCc3ccc(cc3C1)C2CC(=O)O (stereo not shown) [Compound 168] | 2.2 nM |  |  |  |  | 1.3 | 1.2 nM | 3.4 nM | 3.7
24 | Cc1cc2ncc1C(CC(=O)O)c1ccc3c(c1)CN(CC3)C(=O)c1ccc(cc1)CCCCCO2 (stereo not shown) [Compound 157] | 3.8 nM and 4 nM |  |  |  |  | 3.2 | 2.1 nM | 8.9 nM | 9.2
25 | Cc1cc2ccc1C(=O)N1CCc3ccc(cc3C1)[C@@H](CC(=O)O)c1ccc3c(c1)nnn3CCCCCCO2 [Compound 327] | 0.8 nM and 2.3 nM |  |  |  |  | 52.9 | 46.9 nM |  | 179
26 | Cc1c2ccc3c1nnn3CCCCCc1ccc(cc1)C(=O)N1CCc3ccc(cc3C1)[C@H]2CC(=O)O [Compound 286] | 0.7 nM |  |  |  |  | 15.8 |  |  | 44.5
27 | COc1cc2ccc1CCCCCCn1nnc3c(C)c(ccc31)C(CC(=O)O)c1ccc3c(c1)CN(CC3)C2=O (stereo not shown) [Compound 189] | 22.8 nM and 23.3 nM |  |  |  |  | 4.4 | 6 nM | 15.9 nM | 18.8
28 | Cc1c2ccc3c1nnn3CC/C=C/Cc1ccc(c(F)c1)C(=O)N1CCc3ccc(cc3C1)C2C(C)C(=O)O (stereo not shown) [Compound 376] | 1.3 nM and 1.4 nM | 2.1 | 2.3 | 4.5 nM and 5.5 nM | 3.9 |  |  |  | 
29 | O=C(O)CC1c2ccc(nc2)OCCCCOc2ccc(cc2Cl)C(=O)N2CCc3ccc1cc3C2 (stereo not shown) [Compound 212] | 7.7 nM and 5.7 nM |  |  |  |  | 190 | 254 nM | 811 nM | 606
30 | Cc1c2ccc3c1nnn3CCCCCOc1ccc(c(F)c1)C(=O)N1CCc3ccc(cc3C1)[C@@H]2CC(=O)O [Compound 254] | 1.8 nM |  |  |  |  | 16 | 17.2 nM | 22.6 nM | 16.4
31 | Cc1c2ccc3c1nnn3CCCCCCn1ccc3ccc(cc31)C(=O)N1CCc3ccc(cc3C1)C2CC(=O)O (stereo not shown) [Compound 394] | 9 nM and 10.4 nM |  |  |  |  | 3100 | 2900 nM | 2860 nM | 2690
32 | Cc1c2ccc3c1nnn3CCCCCCc1cc(F)c(c(F)c1)C(=O)N1CCc3ccc(cc3C1)C2CC(=O)O (stereo not shown) [Compound 253] | 1.3 nM |  |  |  |  | 5.4 |  |  | 6.6
33 | Cc1cc2ncc1[C@H](CC(=O)O)c1ccc3c(c1)CN(CC3)C(=O)c1c(F)cc(cc1F)CCCCCO2 [Compound 120] | 0.3 nM and 0.4 nM | 1.4 |  | 7.6 nM and 4.6 nM and 6.3 nM | 7.9 |  |  |  | 
34 | Cc1cc2ccc1C(=O)N1CCc3ccc(cc3C1)[C@H](CC(=O)O)c1ccc3c(nnn3CCC/C=C/C2)c1C [Compound 389] | 1.8 nM and 1.9 nM |  |  |  |  | 147 | 153 nM | 409 nM | 231
35 | Cc1c2ccc3c1nnn3CCCCc1ccc3c(cn(C)c3c1)C(=O)N1CCc3ccc(cc3C1)C2CC(=O)O (stereo not shown) [Compound 359] | 7.4 nM and 8.1 nM | > 1000 |  |  | > 10000 |  |  |  | 
36 | Cc1c2cnc3c1nnn3CCCCCCCc1ccc(cc1)C(=O)N1CCc3ccc(cc3C1)[C@H]2CC(=O)O [Compound 67] | 14 nM and 14.5 nM | 23 | 23.5 | 166 nM | 159 |  |  |  | 
37 | Cc1c2ccc3c1nnn3CCOC/C=C/c1ccc(c(F)c1)C(=O)N1CCc3ccc(cc3C1)C2CC(=O)O (stereo not shown) [Compound 365] | 3.4 nM and 3.6 nM | 90 | 171 | 214 nM | 188 |  |  |  | 
38 | Cc1cc2ncc1[C@@H](CC(=O)O)c1ccc3c(c1)CN(CC3)C(=O)c1ccc(cc1)COCCCO2 [Compound 81] | 251 nM and 220 nM | > 1000 | 1840 | 1950 nM | 2160 |  |  |  | 
39 | O=C(O)CC1c2ccc3c(c2)CN(CC3)C(=O)c2ccc(cc2F)CCCCCn2nnc3c(Cl)c1ccc32 (stereo not shown) [Compound 145] | 0.1 nM |  |  |  |  | 0.6 | 0.5 nM | 0.7 nM | 0.4
